Laboratory results from US12102631B2, “Quinolylnitrones for the treatment and prevention of a cerebral stroke or ischaemia” (ISQUAEMIA BIOTECH, S.L., priority 2018, dated 2024).

Assays:
[1] = system: primary neuronal cultures from rat cerebral cortex; assay: Neuroprotection (MTT cell viability) in primary neuronal cultures exposed to oxygen-glucose deprivation (OGD); type: cell-based; details: 24 h recovery after 4 h OGD; for neuronal viability compared with R24 h (in words): concentrations as stated or in FIG. 4
Experimental: Primary neuronal cultures. Primary neuronal cultures from rat cerebral cortex were prepared as previously described.^54 All procedures associated with animal experiments were approved by the Ethics Committee of the Hospital Ramón y Cajal, Madrid (Spain). Cell suspensions from cerebral cortex were prepared from 16- to 17-day-old Sprague-Dawley rat embryos. Living cells in cell suspension were counted by trypan blue exclusion method. Cells were seeded on plastic multidishes precoated with 0.05 mg/mL poly-D-lysine at a density of 2.5×10^5 cells/cm^2 and were kept at 37° C. in a 6.5% CO2 atmosphere in high glucose Dulbecco's medium supplemented with 15% heat-inactivated (56° C. for 30 min) foetal calf serum. After 24 h, cultured cells were […] to induce experimental ischemia.^23 Cultured cells were washed and placed in glucose-free Dulbecco's medium (bubbled with 95% N2/5% CO2 for 30 min), and maintained in a humidified hypoxia chamber equipped with an oxygen and carbon dioxide control unit (Biospherix) at 6.5% CO2 and <0.1% O2 in N2 at 37° C. Cells were exposed to OGD for a period of 4 h (OGD 4 h). At the end of the OGD period, culture medium was replaced with oxygenated serum-free medium, and cells were placed and maintained in the normoxic incubator for 24 h to recovery (R24 h). In the neuroprotection experiments, the compounds were added at the onset of recovery period. Control cultures in Dulbecco's medium containing glucose were kept in the normoxic incubator for the same period of time as the OGD, and then medium (Dulbecco's/Ham's F12, 1:1 [vol/vol], 5 mg/mL glucose, 2 mM L-glutamine, and 1 mM sodium pyruvate, and supplemented with 100 μg/mL transferrin, 100 μM putrescine, 20 nM progesterone, 30 nM sodium selenite and 5 μg/mL insulin). Here, 6-7 day old cultured neurons were used in the experiments, and contained 90% β-III-tubulin-positive mature neurons, as described previously.^55
Exposure of cell cultures to oxygen-glucose deprivation and treatments. Primary neuronal cultures were exposed to […]. Control experiments included the same amounts of vehicle (final concentration<0.5% ethanol). Nitrone 2 was used as reference compound for neuroprotection. The experimental procedures were blindly performed, assigning a random order to each assayed nitrone. Nitrones were analyzed independently four-eight times with different batch of cultures and each experiment was run in quadruplicate.
Cell viability assay. Cell viability was evaluated by quantification of living, metabolically active cells, as determined by a colorimetric assay using the photometric reduction of 3-(4,5-dimethylthiazol-2-yl)-2,5-diphenyl tetrazolium bromide (MTT) (Roche) to a blue formazan product. The assay of living, metabolically active cells was performed by incubating with 0.2 mg/mL MTT in the culture medium for 1.5 h in an incubator at 37° C. in a 6.5% CO2 atm. After the incubation period, cells were lysed with an equal volume of 10 mM HCl and 10% SDS overnight. Values were quantified by absorbance (test 595 nm, reference 690 nm). Decreased MTT activity denotes impairment of mitochondrial function and is considered to be an index of cell damage. Primary neuronal cultures were collected at times indicated for MTT determination.
Neuroprotection of compounds was evaluated by a cell viability assay. The neuroprotective effect of the compounds 5-32 was evaluated on primary neuronal cultures from cerebral cortex subjected to oxygen-glucose deprivation (OGD) to induce experimental ischemia. Afterwards, cultured neurons were placed and kept in normoxic and normoglycemic conditions to recovery. […]

[2] = Quantitative nitrite assay for NO release (Griess); type: biochemical; details: 100 μM, L-cysteine, pH 7.4, 60 min 37° C.
Experimental: Quantitative nitrite assays for NO release. A solution of nitrone 23 (final concentration 100 μM) (20 μL), dissolved in DMSO, was added to 2 mL of 50 mM phosphate buffer (pH=7.4) containing the appropriate amount of thiol cofactor 1 mM (L-cysteine). After 60 min at 37° C., 1 mL of the reaction mixture was treated with 250 μL of the Griess reagent (4 g sulfanilamide, 0.2 g N-naphthyl-ethyldiamine dihydrochloride, 10 mL of 85% phosphoric acid in distilled water, final volume 100 mL). After the mixture stood for 10 min at rt, absorbance was recorded at 540 nm. Sodium nitroprusside (SNP) was used as standard reference compound (100 μM). The yield in nitrite (NO2^− release) for nitrone 23, as function of L-cysteine (mM concentration) is given in Table 1, expressed as % NO2^− (mol/mol).
QNs were tested in vitro for their ability to release NO by the action of a thiol co-factor. NO release with simultaneous production of cyanide occurs by action of reducing agents like thiols. L-cysteine was used as a co-factor in this in vitro biological test. […] The screened compounds (final concentration 100 μM) was tested for its ability to release NO when dissolved in a phosphate buffer containing L-cysteine (pH 7.4). Air was oxidizing the initially formed NO, transforming it to nitrites, which were detected by the Griess reaction. Virtually, no formation of NO2^− was detectable in the absence of L-cysteine for the nitrones tested.

[3] = Rattus norvegicus, R24 h = 0%, control = 100%

Compound | neuronal viability compared with R24 h (in words) [1] | viability at 100 µM [1, 3] [%] | viability at 250 µM [1, 3] [%] | viability at 500 µM ([1]; Rattus norvegicus, 500 μM, R24 h = 0%, control = 100%) [%] | NO2− (%) (mol/mol) [2] | viability at 1 µM [1, 3] [%] | viability at 10 µM [1, 3] [%] | viability at 0.3 µM [1, 3] [%]
CC(C)(C)/[N+]([O-])=C/c1ccc(S(=O)(=O)O)cc1S(=O)(=O)O [Compound 2, sodium (Z)-4-((tert-butyloxidoazanylidene)methyl)benzene-1,3-disulfonate, reference compound] | only produced a significant neuroprotective effect at 250 μM | 42.8 ± 2.31 | 52.9 ± 2.52 | 46.5 ± 1.1 | 1 % (mol/mol) | – | – | –
CC(C)(C)/[N+]([O-])=C/c1cc2ccccc2nc1Cl [Compound 18, (Z)—N-t-Butyl-1-(2-chloroquinolin-3-yl)methanimine oxide] | – | < 0 | – | – | 7.5 % (mol/mol) | 9.76 ± 0.84 | 29 ± 3.83 | –
CC(C)(C)/[N+]([O-])=C/c1cc2ccccc2[nH]c1=O [Compound 19, (Z)—N-tert-Butyl-1-(2-oxo-1,2-dihydroquinolin-3-yl)methanimine oxide] | significantly increased neuronal viability | 48.8 ± 2.29 | 55 ± 1.89 | – | – | – | – | –
COc1ccc2nc(Cl)c(/C=[N+](/C)[O-])cc2c1 [Compound 22, (Z)-1-(2-Chloro-6-methoxyquinolin-3-yl)-N-methylmethanimine oxide] | – | < 0 | < 0 | – | 11 % (mol/mol) | < 0 | < 0 | < 0
COc1ccc2nc(Cl)c(/C=[N+](\[O-])C(C)(C)C)cc2c1 [Compound 23, (Z)—N-tert-Butyl-1-(2-chloro-6-methoxyquinolin-3-yl)methanimine oxide] | significantly increased neuronal viability | 77.1 ± 2.24 | 65.9 ± 2.87 | – | 3 % (mol/mol) | – | 52 ± 1.75 | –
COc1ccc2nc(Cl)c(/C=[N+](\[O-])Cc3ccccc3)cc2c1 [Compound 24, (Z)—N-Benzyl-1-(2-chloro-6-methoxyquinolin-3-yl)methanimine oxide] | – | 38.9 ± 1.31 | – | – | 12.5 % (mol/mol) | 31.3 ± 1.38 | 29.7 ± 1.38 | < 0
COc1ccc2nc(Cl)c(C=O)cc2c1 [Compound 32, 2-chloro-6-methoxyquinoline-3-carbaldehyde, reference compound] | nor carbaldehyde 32, the precursor of potent QN 23, showed neuroprotective activity | < 0 | – | – | 2.5 % (mol/mol) | < 0 | < 0 | –
